The values that follow come from patent US20240140957A1, “BRIDGED COMPOUNDS AS KRAS G12D INHIBITOR AND DEGRADER AND THE USE THEREOF” (BeiGene Switzerland GmbH, priority 2021, published 2024).

For one assay, the target named is KRAS G12D:SOS1 (Homo sapiens, UniProt P01116, G12D). As to the kind of experiment: KRAS G12D:SOS1 GDP TR-FRET assay. The note with it: GST-KRAS G12D 37.5 nM, GDP 10 μM, His-SOS1 18 nM. The format is binding. As for the experimental part:
(§1) KRAS:SOS1 GDP TR-FRET Assay
(§2) This assay was used to identify compounds which competitively interact with the binding of KRAS protein to SOS1 in the presence of GDP. […] All protein and reaction solutions were prepared in assay buffer containing DPBS pH7.5, 0.1% BSA, and 0.05% Tween 20. Purified GST-tagged WT KRAS or KRAS G12D protein (37.5 nM final assay concentration) and GDP (Sigma, 10 μM final assay concentration) mixture, a serially diluted compound (top final concentration is 50 μM or 10 uM, 3-fold serially diluted, 10 points) and His-tagged SOS1 protein (18 nM final assay concentration) were added into the assay plates (384 well microplate, black, Corning) sequentially. Plates are incubated at 24° C. for 1 hr. Following the incubation, Mab Anti-GST-Tb cryptate (Cisbio) and […] (Cisbio) were added and further incubated at 24° C. for another 1 hr. The TR-FRET signals (ex337 nm, em665 nm/620 nm) were read on BMG PHERAstar FSX instrument. The inhibition percentage of KRAS protein binding with SOS1 in presence of increasing concentrations of compounds was calculated based on the ratio of fluorescence at 665 nm to that at 620 nm. The IC50 value of each compound was calculated from fitting the data to the four-parameter logistic model by Dotmatics.

A further assay addresses WT KRAS:SOS1 (Homo sapiens, UniProt P01116). In words: KRAS WT:SOS1 GDP TR-FRET assay. The format is binding. The settings on record: GST-WT KRAS 37.5 nM, GDP 10 μM, His-SOS1 18 nM. On the procedure: as §1, §2
Background: Time-resolved FRET reads energy transfer from a long-lived donor to a nearby acceptor.

The test system of assay [1] is pERK1/2 (THR202/TYR204) in AsPC-1 cells. As to the kind of experiment: pERK Assay (HTRF) in AsPC-1 cells. The format is cell-based. The settings on record: Homo sapiens, ASPC1, 2 h compound treatment. As for the experimental part:
AsPC-1 cell line was used in this study. […] 30000 cells per well were seeded into a 96-well plate and incubated overnight. […] After 2 h compound treatment, cells were lysed, and the pERK1/2 (THR202/TYR204) level in the cell lysates was detected by HTRF kit (Cisbio). In brief, a total of 16 μL of cell lysate from each well of a 96-well plate was transferred to a 384-well white assay plate. Lysate from each well was incubated with 2 μL of Eu3+-cryptate (donor) labeled anti-phospho-ERK1/2 and 2 μL of D2 (acceptor) labeled anti-phospho-ERK1/2 antibodies (Cisbio) overnight in dark at room temperature. When donor and acceptor are in close proximity, excitation of the donor with laser triggers a Fluorescence Resonance Energy Transfer (FRET) towards the acceptor, which in turn fluoresces at 655 nm wavelength. FRET signals were measured using a PHERAstar FSX reader (BMG Labtech).

Sequence of KRAS G12D:SOS1 (P01116 1-188 isoform P01116-2 G12D): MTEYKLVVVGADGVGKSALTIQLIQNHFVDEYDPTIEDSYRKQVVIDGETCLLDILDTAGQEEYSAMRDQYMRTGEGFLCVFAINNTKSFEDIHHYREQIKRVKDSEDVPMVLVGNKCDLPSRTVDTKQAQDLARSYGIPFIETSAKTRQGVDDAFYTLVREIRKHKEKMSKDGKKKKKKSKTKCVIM
Sequence of WT KRAS:SOS1 (P01116 1-188 isoform P01116-2): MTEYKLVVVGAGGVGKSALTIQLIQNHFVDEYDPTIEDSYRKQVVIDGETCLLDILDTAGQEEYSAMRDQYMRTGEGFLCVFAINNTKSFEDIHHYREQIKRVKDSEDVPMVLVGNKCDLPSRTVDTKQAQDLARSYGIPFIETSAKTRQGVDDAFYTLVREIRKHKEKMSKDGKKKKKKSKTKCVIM

With `C[C@@H](CN1CCC(F)(F)C1)Oc1nc(N2CC3CCC(C2)N3)c2cc(Cl)c(-c3ccc(F)c4sc(N)nc34)c(F)c2n1` [Example E20, 4-(4-(3,8-diazabicyclo[3.2.1]octan-3-yl)-6-chloro-2-(((S)-1-(3,3-difluoropyrrolidin-1-yl)propan-2-yl)oxy)-8-fluoroquinazolin-7-yl)-7-fluorobenzo[d]thiazol-2-amine], the values for the IC50 (against KRAS G12D:SOS1; on WT KRAS:SOS1; in assay [1]) were 25 nM, greater than 10000 nM and 7260 nM, respectively.

For the compound `CC(CN1CCCCC1)Oc1nc(N2CC3COCC(C2)N3)c2cc(Cl)c(-c3ccc(F)c4sc(N)nc34)c(F)c2n1` (stereo not drawn) [Example E21, 4-(4-(3-oxa-7,9-diazabicyclo[3.3.1]nonan-7-yl)-6-chloro-8-fluoro-2-((1-(piperidin-1-yl)propan-2-yl)oxy)quinazolin-7-yl)-7-fluorobenzo[d]thiazol-2-amine], the IC50 (as a rule, the point on the concentration scale where inhibition reaches its midpoint) was 44 nM against KRAS G12D:SOS1, 338 nM at WT KRAS:SOS1 and greater than 10000 nM in assay [1].

Regarding `C[C@@H](CN1CCS(=O)(=O)CC1)Oc1nc(N2CC3CCC(C2)N3)c2cc(Cl)c(-c3ccc(F)c4sc(N)nc34)c(F)c2n1` [Example E22, 4-((2S)-2-((7-(2-amino-7-fluorobenzo[d]thiazol-4-yl)-4-(3,8-diazabicyclo[3.2.1]octan-3-yl)-6-chloro-8-fluoroquinazolin-2-yl)oxy)propyl)thiomorpholine 1,1-dioxide], the results for the IC50 (against KRAS G12D:SOS1; at WT KRAS:SOS1; in assay [1]) were 27 nM, greater than 3330 nM and 7700 nM, respectively.

With `C[C@@H](CN1CCC1)Oc1nc(N2CC3CCC(C2)N3)c2cc(Cl)c(-c3ccc(F)c4sc(N)nc34)c(F)c2n1` [Example E23, 4-(2-(((S)-1-(azetidin-1-yl)propan-2-yl)oxy)-4-(3,8-diazabicyclo[3.2.1]octan-3-yl)-6-chloro-8-fluoroquinazolin-7-yl)-7-fluorobenzo[d]thiazol-2-amine], the results for the IC50 (at KRAS G12D:SOS1; against WT KRAS:SOS1; in assay [1]) were 3.9 nM, 146 nM and 5220 nM, respectively.

As for `C[C@@H](CN1CCC(F)C1)Oc1nc(N2CC3CCC(C2)N3)c2cc(Cl)c(-c3ccc(F)c4sc(N)nc34)c(F)c2n1` (stereo partly drawn) [Example E24, 4-(4-(3,8-diazabicyclo[3.2.1]octan-3-yl)-6-chloro-8-fluoro-2-(((2S)-1-(3-fluoropyrrolidin-1-yl)propan-2-yl)oxy)quinazolin-7-yl)-7-fluorobenzo[d]thiazol-2-amine], the IC50 amounted to 2.8 nM on KRAS G12D:SOS1, 210 nM on WT KRAS:SOS1 and 1270 nM in assay [1].

Take `C[C@@H](CN1CCC(F)CC1)Oc1nc(N2CC3CCC(C2)N3)c2cc(Cl)c(-c3ccc(F)c4sc(N)nc34)c(F)c2n1` [Example E25]: the IC50 stood at 2.2 nM against KRAS G12D:SOS1, 88 nM at WT KRAS:SOS1 and 860 nM in assay [1].

Take `C[C@@H](CN1CCC(C#N)CC1)Oc1nc(N2CC3CCC(C2)N3)c2cc(Cl)c(-c3ccc(F)c4sc(N)nc34)c(F)c2n1` [Example E26, 1-((2S)-2-((7-(2-amino-7-fluorobenzo[d]thiazol-4-yl)-4-(3,8-diazabicyclo[3.2.1]octan-3-yl)-6-chloro-8-fluoroquinazolin-2-yl)oxy)propyl)piperidine-4-carbonitrile]: the values for the IC50 (against KRAS G12D:SOS1; against WT KRAS:SOS1; in assay [1]) were 2.9 nM, 140 nM and 819 nM, respectively.

Regarding `CC1CCCCN1C[C@H](C)Oc1nc(N2CC3CCC(C2)N3)c2cc(Cl)c(-c3ccc(F)c4sc(N)nc34)c(F)c2n1` (stereo partly drawn) [Example E27, 4-(4-(3,8-diazabicyclo[3.2.1]octan-3-yl)-6-chloro-8-fluoro-2-(((2S)-1-(2-methylpiperidin-1-yl)propan-2-yl)oxy)quinazolin-7-yl)-7-fluorobenzo[d]thiazol-2-amine], the IC50 against KRAS G12D:SOS1 stood at 2.9 nM; against WT KRAS:SOS1, 57 nM; in assay [1] it was 518 nM.

Consider `CN1C[C@H](O)C[C@H]1COc1nc(N2CC3CCC(C2)N3)c2cc(Cl)c(-c3ccc(F)c4sc(N)nc34)c(F)c2n1` [Example E28, (3R,5S)-5-(((7-(2-amino-7-fluorobenzo[d]thiazol-4-yl)-4-(3,8-diazabicyclo[3.2.1]octan-3-yl)-6-chloro-8-fluoroquinazolin-2-yl)oxy)methyl)-1-methylpyrrolidin-3-ol], for which the IC50 against KRAS G12D:SOS1 came out at 3 nM; against WT KRAS:SOS1, 30 nM; in assay [1], 8860 nM.

Turning to `C[C@@H](CN1CCOCC1)Oc1nc(N2CC3CCC(C2)N3)c2cc(Cl)c(-c3ccc(F)c4sc(N)nc34)c(F)c2n1` [Example E29, 4-(4-(3,8-diazabicyclo[3.2.1]octan-3-yl)-6-chloro-8-fluoro-2-(((S)-1-morpholinopropan-2-yl)oxy)quinazolin-7-yl)-7-fluorobenzo[d]thiazol-2-amine], the values for the IC50 (against KRAS G12D:SOS1; against WT KRAS:SOS1; in assay [1]) were 5.9 nM, 453 nM and 903 nM, respectively.

Regarding `C[C@@H](CN1CCC(F)CC1)Oc1nc(N2C3CCC2CNC3)c2cc(Cl)c(-c3ccc(F)c4sc(N)nc34)c(F)c2n1` [Example E30, 4-(4-(3,8-diazabicyclo[3.2.1]octan-8-yl)-6-chloro-8-fluoro-2-(((S)-1-(4-fluoropiperidin-1-yl)propan-2-yl)oxy)quinazolin-7-yl)-7-fluorobenzo[d]thiazol-2-amine], the figures for the IC50 (against KRAS G12D:SOS1; at WT KRAS:SOS1; in assay [1]) were 12 nM, 173 nM and 1810 nM, respectively.

On to `C[C@@H](CN1CC(F)C1)Oc1nc(N2CC3CCC(C2)N3)c2cc(Cl)c(-c3ccc(F)c4sc(N)nc34)c(F)c2n1` [Example E31, 4-(4-(3,8-diazabicyclo[3.2.1]octan-3-yl)-6-chloro-8-fluoro-2-(((S)-1-(3-fluoroazetidin-1-yl)propan-2-yl)oxy)quinazolin-7-yl)-7-fluorobenzo[d]thiazol-2-amine], for which the IC50 was determined as 11 nM at KRAS G12D:SOS1, 1080 nM on WT KRAS:SOS1 and 1900 nM in assay [1].

As for `C[C@@H](CN1CC=CCC1)Oc1nc(N2CC3CCC(C2)N3)c2cc(Cl)c(-c3ccc(F)c4sc(N)nc34)c(F)c2n1` [Example E33, 4-(4-(3,8-diazabicyclo[3.2.1]octan-3-yl)-6-chloro-2-(((S)-1-(3,6-dihydropyridin-1(2H)-yl)propan-2-yl)oxy)-8-fluoroquinazolin-7-yl)-7-fluorobenzo[d]thiazol-2-amine], the IC50 against KRAS G12D:SOS1 was found to be 6.1 nM; against WT KRAS:SOS1, 143 nM; in assay [1] it was 890 nM.

`C[C@@H](CN1CCN(C)CC1)Oc1nc(N2CC3CCC(C2)N3)c2cc(Cl)c(-c3ccc(F)c4sc(N)nc34)c(F)c2n1` [Example E34, 4-(4-(3,8-diazabicyclo[3.2.1]octan-3-yl)-6-chloro-8-fluoro-2-(((S)-1-(4-methylpiperazin-1-yl)propan-2-yl)oxy)quinazolin-7-yl)-7-fluorobenzo[d]thiazol-2-amine]: the IC50 was 15 nM against KRAS G12D:SOS1, 1350 nM against WT KRAS:SOS1 and greater than 10000 nM in assay [1].

With `Nc1nc2c(-c3c(Cl)cc4c(N5C6CCC5CNC6)nc(OC5CC6CCCCN6C5)nc4c3F)ccc(F)c2s1` (stereo not drawn) [Example E39, 4-(4-(3,8-diazabicyclo[3.2.1]octan-8-yl)-6-chloro-8-fluoro-2-((octahydroindolizin-2-yl)oxy)quinazolin-7-yl)-7-fluorobenzo[d]thiazol-2-amine], the values for the IC50 (against KRAS G12D:SOS1; at WT KRAS:SOS1; in assay [1]) were 54 nM, 8160 nM and greater than 10000 nM, respectively.
